From patent US20050239720A1, “Combination of an agent that attenuates topoisomerase 1 activity and an agent that inhibits heat shock protein 90 for use in chemotherapy” (UNIVERSITY OF LIVERPOOL Senate House, priority 2002, published 2005)

System: HCT116 p53 WT cells and p53 KO cells
Assay: Growth inhibition assay (sulforhodamine B)
Type: cell-based, human
Details: single drug alone; HCT116 p53 WT and p53 knockout cells; FIG. 4 and FIG. 5
Experimental: The isogenic p53 human colon cancer cell line (WT and KO), HCT116 (see Hwang et al. Nat Med 2001 November 7(11):1255). Cells were maintained in McCoys 5A medium (Sigma) supplemented with 10% foetal calf serum (Gibco) at 37° C. in a 5% CO2 enriched humidified environment, Penicillin and Streptomycin. 96 well flat-bottomed plates were seeded with 3×10^3 cells per well and allowed to adhere overnight. Media was then replaced with fresh media alone (control) or containing test drugs e.g. 0-100 μM irinotecan, 50 to 200 nM geldanamycin (GA) and combinations of both. At fixed time points, cells were fixed with 3:1 methanol:acetic acid and stained with 0.4% w/v sulforhodamine B (Sigma) in 1% v/v acetic acid for 30 minutes. Plates were then washed twice with 1% v/v acetic acid, the dye solubilised with 100 μl per well of 10 mM Tris pH 10.4 and read at […] using a Benchmark microplate reader (BioRad). Drugs were used in the following concentrations for Growth inhibition and Clonogenic assays: [table]

COC1=C2C[C@@H](C)C[C@H](OC)[C@H](O)[C@@H](C)/C=C(\C)[C@H](OC(N)=O)[C@@H](OC)/C=C\C=C(/C)C(=O)NC(=CC1=O)C2=O [Geldanamycin]
effect on cell growth: inhibitory effects

CCc1c2c(nc3ccc(OC(=O)N4CCC(N5CCCCC5)CC4)cc13)-c1cc3c(c(=O)n1C2)COC(=O)[C@]3(O)CC [Irinotecan]
effect on cell growth: inhibitory effects
